Non-standard residues stand in square brackets, D forms with d. Residues, ends and D or L forms follow the SMILES beside them. No end group written: not given here. ξ: configuration not given here. *: point of attachment. Paclitaxel(2'-OCO(CH2)3S) = CC(=O)O[C@H]1C(=O)[C@@]2(C)[C@H]([C@H](OC(=O)c3ccccc3)[C@]3(O)C[C@H](OC(=O)[C@H](OC(=O)CCCS*)[C@@H](NC(=O)c4ccccc4)c4ccccc4)C(C)=C1C3(C)C)[C@]1(OC(C)=O)CO[C@@H]1C[C@@H]2O; Palmitoyl = CCCCCCCCCCCCCCCC(=O)*; ξV = CC(C)C(N)C(=O)O
Key:
[1] = test system: 965 human primary brain tumor cells; assay: Cytotoxicity dose-response, SRB assay, 965; format: cell-based; conditions: 965 primary cells, 72 h incubation per FIG. 16 legend
Protocol: (§1) FIGS. 16A-16B depict the cytotoxicity evaluation of PTX-buSS-FFFRGDR (SEQ ID NO: 1), PTX-buSS-VVVRGDR (SEQ ID NO: 2), and C16-FFFRGDR (SEQ ID NO: 1) against U87 human glioblastoma cells (A) and 965 human primary brain tumor cells (B). Cells were incubated with the PTX or conjugates for 48 h (U87) or 72 h (965) and cell viability was determined by SRB assay. Data are given as mean±s.d. (n=3).
(§2) U87 human glioblastoma cells were provided by Prof. Denis Wirtz's lab (Department of Chemical and Biomolecular Engineering, Johns Hopkins University). Primary human brain cancer cell line 965 was provided by Prof. Alfredo Quinones-Hinojosa of the Johns Hopkins Medical School. All cell lines were cultured according to providers' protocols. U87 human glioblastoma cells were grown in DMEM with 10% FBS and 1% antibiotics. Primary human brain cancer cell line 965 was grown in DEME/F12 with 2% Neuroplex, 1% antibiotics, 20 ng/mL hEGF and 20 ng/mL hFGF.
(§3) The cytotoxicity assays of PTX-FFFRGDR (SEQ ID NO: 1), PTX-VVVRGDR (SEQ ID NO: 2), C16-FFFRGDR (SEQ ID NO: 1) were determined using a dose-response study. A 96-well plate was seeded with cell sat a density of 5×10^3 cells/well and incubated at 37° C. for 24 h. The cells were then treated with varying concentrations of paclitaxel or conjugate in cell medium and incubated for a further 48 h (U87) or 72 h (primary cell lines). Cell viability was determined by sulforhodamine-B (SRB, Sigma Aldrich) assay according to the manufacturer's protocol. The data was fitted using the Hill equation function within the Igor Pro program and used to obtain the IC50 value.
(§4) The in vitro cytotoxicity of PTX-buSS-FFFRGDR (SEQ ID NO: 1) was assessed an compared to that of free PTX, PTX-buSS-VVVRGDR (SEQ ID NO: 2) and C16-FFFRGDR (SEQ ID NO: 1) against two brain tumor cell lines, including U87 human glioblastoma cell line and 965 primary human brain tumor cell line (FIG. 16). Cells were incubated for 48 h with varying drug concentrations and cell viability was determined using sulforhodamine B (SRB) assay. […]

[2] = test system: U87 human glioblastoma cells; assay: Cytotoxicity dose-response, SRB assay, U87; format: cell-based; conditions: U87, 48 h incubation
Protocol: as §1, §2, §3, §4

[3] = Paclitaxel release study in PBS buffer with or without GSH; format: physicochemical; conditions: 37° C., 50 μM, presence or absence of 10 mM GSH
Protocol: FIGS. 15A-15D illustrate fluorescence measurements to determine the CMC value of PTX-buSS-FFFRGDR (SEQ ID NO: 1) (A) and PTX-buSS-VVVRGDR (SEQ ID NO: 2) (B) based on Nile Red encapsulation within the assembled nanostructures. Representative CD spectra (solid lines) and UV-vis spectra (dash lines) of 200 μM PTX-buSS-FFFRGDR (SEQ ID NO: 1), 200 μM PTX-buSS-VVVRGDR (SEQ ID NO: 2) and 200 μM. C16-FFFRGDR (SEQ ID NO: 1) (C). Paclitaxel release study of PTX-buSS-FFFRGDR (SEQ ID NO: 1) and PTX-buSS-VVVRGDR (SEQ ID NO: 2) in PBS buffer at 37° C. at 50 μM. Solutions were incubated in the presence or absence of 10 mM GSH. Data are given as mean±s.d. (n=3).
Since the release of the active compound is critical and tunable by altering nanofilaments morphologies, experiments to determine PTX release were carried out in PBS buffer at 37° C. in the presence or absence of 10 mM GSH (FIG. 15D).

[4] = test system: U87 human glioblastoma cells; assay: Hydrogel drug release and cytotoxicity, live/dead cell staining; format: cell-based; conditions: U87, 24 h incubation with hydrogel, near-gel region 1 and peripheral region 2
Protocol: FIGS. 17A-17F show the in vitro drug release and cytotoxicity study of PTX-buSS-FFFRGDR (SEQ ID NO: 1), PTX-buSS-VVVRGDR (SEQ ID NO: 2), and C16-FFFRGDR (SEQ ID NO: 1) hydrogels against U87 human glioblastoma cells. Live/dead assay cell images after 24 h of incubation with blank culture media (A and D), PTX-buSS-FFFRGDR (SEQ ID NO: 1) (B and E), or C16-FFFRGDR (SEQ ID NO: 1) (C and F).
The in vitro drug release and cytotoxicity of PTX-buSS-FFFRGDR (SEQ ID NO: 1) was assessed and compared to that of C16-FFFRGDR (SEQ ID NO: 1) blank hydrogel against U87 human glioblastoma cells (FIG. 17). Cells were incubated for 24 h with PTX-loaded and PTX-free hydro-gels and cell viability was determined using live/dead cell staining method. Two sections along gradient decaying radius were taken to compare cell viability after treatment with different hydrogels.

implanted tumors = assay: In vivo brain tumor resection model
Source text: A) A cranial window (5 mm) was made at the same location of tumor implantation, and the tumor was resected with microscissors. A droplet of CPT nanofiber solution was placed in the resected area, forming hydrogels upon delivery. A methacrylate membrane was used to cover the skull defect.
A droplet of CPT-HKD nanofiber solution was placed in the resected area, forming hydrogels upon delivery. A methacrylate membrane was used to cover the skull defect.
Using the in vivo brain tumor resection model described above, mice with implanted tumors were treated with resection of the tumor alone or resection and addition of CPT-HKD hydrogel and the tumor site was subjected to BLI analysis at 1 and 2 weeks post-resection.
Using the in vivo brain tumor resection model described above, mice with implanted tumors were treated with resection of the tumor alone or resection and addition of CPT-HKD hydrogel for 1 month. After the test period, mouse brains were removed and sectioned in 10 μm thick sections and stained using H&E methods. Tumor area was determined by stereological analysis of consecutive 10 μm thick sections. p value was calculated by Mann-Whitney U (p=0.037).

[5] = Hydrogel formation of CPT-HKD nanofibers in DPBS; format: physicochemical
Protocol: (§5) (C) Cumulative release of drug from the hydrogel formed by CPT-HKD (1.2 wt %) over one month. […] (D) Cell viability of primary glioma cells derived from three patients treated by CPT-HKD of varying concentrations.
(§6) CPT-HKD was incubated with primary glioma cells derived from three patients to determine cytotoxicity (FIG. 18D).

[6] = Cumulative release of drug from CPT-HKD hydrogel; format: physicochemical
Protocol: as §5, §6

[7] = test system: primary glioma cells derived from three patients; conditions: varying concentrations
Protocol: as §5, §6

Molecule: CC(=O)N[C@@H](CSSCCCC(=O)O[C@@H](C(=O)O[C@H]1C[C@@]2(O)[C@@H](OC(=O)c3ccccc3)[C@@H]3[C@]4(OC(C)=O)CO[C@@H]4C[C@H](O)[C@@]3(C)C(=O)[C@H](OC(C)=O)C(=C1C)C2(C)C)[C@@H](NC(=O)c1ccccc1)c1ccccc1)C(=O)N[C@@H](Cc1ccccc1)C(=O)N[C@@H](Cc1ccccc1)C(=O)N[C@@H](Cc1ccccc1)C(=O)N[C@@H](CCCNC(=N)N)C(=O)NCC(=O)N[C@@H](CC(=O)O)C(=O)N[C@@H](CCCNC(=N)N)C(=O)O [PTX-buSS-FFFRGDR] (Ac-C(Paclitaxel(2'-OCO(CH2)3S))FFFRGDR-OH)
- in vitro cytotoxicity (cell viability) [1]: near-identical toxicity to free PTX
- in vitro cytotoxicity (cell viability) [2]: near-identical toxicity to free PTX

Molecule: CC(=O)N[C@@H](CSSCCCC(=O)O[C@@H](C(=O)O[C@H]1C[C@@]2(O)[C@@H](OC(=O)c3ccccc3)[C@@H]3[C@]4(OC(C)=O)CO[C@@H]4C[C@H](O)[C@@]3(C)C(=O)[C@H](OC(C)=O)C(=C1C)C2(C)C)[C@@H](NC(=O)c1ccccc1)c1ccccc1)C(=O)NCC(=O)N[C@H](C(=O)NC(C(=O)N[C@H](C(=O)N[C@@H](CCCNC(=N)N)C(=O)NCC(=O)N[C@@H](CC(=O)O)C(=O)N[C@@H](CCCNC(=N)N)C(=O)O)C(C)C)C(C)C)C(C)C (stereo partly shown) [PTX-buSS-VVVRGDR] (Ac-C(Paclitaxel(2'-OCO(CH2)3S))GV[ξV]VRGDR-OH)
- in vitro cytotoxicity (cell viability) [1]: near-identical toxicity to free PTX
- in vitro cytotoxicity (cell viability) [2]: near-identical toxicity to free PTX
- PTX release rate, with GSH versus without [3]: faster release rates under GSH conditions

Molecule: CCCCCCCCCCCCCCCC(=O)N[C@@H](Cc1ccccc1)C(=O)N[C@@H](Cc1ccccc1)C(=O)N[C@@H](Cc1ccccc1)C(=O)N[C@@H](CCCNC(=N)N)C(=O)NCC(=O)N[C@@H](CC(=O)O)C(=O)N[C@@H](CCCNC(=N)N)C(=O)O [C16-FFFRGDR] (Palmitoyl-FFFRGDR-OH)
- in vitro cytotoxicity (cell viability) [1]: didn't show any significant toxicity
- in vitro cytotoxicity (cell viability) [2]: didn't show any significant toxicity
- cell viability by live/dead staining around the hydrogel [4]: non-toxicity against U87 cells in both regions

Molecule: CPT-HKD (GVVQQHKD; also: camptothecin conjugated via buSS linker, site not given here)
- BLI signal intensity versus resection only group (implanted tumors; 1 and 2 weeks post-resection, p=0.0076): significant lower intensity
- difference in survival versus resection only group (implanted tumors; Kaplan-Meier analysis, p=0.01): extension of one-week
- tumor area versus resection only group (implanted tumors; after 1 month of treatment, stereological analysis of 10 μm sections, p=0.037): Reduces Brain Tumor Area
- survival (Kaplan-Meier) (implanted tumors; resection plus hydrogel, resection only 35 days, p=0.01): 41 days
- concentration at which nanofibers form a hydrogel [5]: higher than 0.4 wt %
- hydrogel shape retention ([6]; after one month): retained its shape after one month
- cumulative release of drug from the hydrogel ([6]; hydrogel 1.2 wt %, over one month): about 15 % of total bound drug
- cytotoxicity (cell viability) [7]: dose dependent cytotoxicity shown in all three cell lines
